One data set relates to pre-menopausal women. The note with it: 1200 mg of calcium supplements daily, three menstrual cycles; placebo 48%; cited from earlier work.
Data set [1] is described as follows: Compactability of sugar alcohols compressed alone. In kind it is physicochemical. The note with it: tablets of sugar alcohol alone; FIG. 19. On the procedure: Tablets comprising sorbitol 110 μm, sorbitol 38 μm, isomalt 27 μm, maltitol, mannitol or xylitol were compressed on an instrumented Fette Exacta 1/F single punch tablet press, only maximum compression force on the upper punch was recorded.
Before the compression of each tablet the punch tips and the die bore were lubricated with a 5% suspension of magnesium stearate in acetone. The acetone was allowed to evaporate before compression of the tablet.
The sugar alcohol was weighed, transferred to the die bore and then compressed, see Table 14. Immediately after ejection the tablet was tested for crushing strength.

A short description of data set [2]: Tablet hardness as a function of compression pressure (Schleuniger AT4). In kind it is physicochemical. The text has this:
Sorbitol was lump breaked in a Cone Mill (Quadro U20) and afterwards premixed with Calcium Carbonate in a high-shear mixer (Diosna P250 at low impeller speed and no chopper) for 60 sec.
The premix was granulated on a roller compactor (Gerteis 3W-Polygran), and the compacted granules was then mixed with Povidone K30, Aspartame, D3 Vitamin and Flavour in a high-shear mixer (Diosna P250 at low impeller speed and no chopper) for 60 sec. Finally, lubrication with Magnesium Stearate was done a high-shear mixer (Diosna P250 at low impeller speed and no chopper) for 25 sec.
The roller compaction was based on a setup with knurled rollers and control. The key set up parameters are: Gap Width (GW), Force (F), Roller Speed (RS) and screen size.
Tablet weight was approximately 1,750 mg. All in-process weight and hardness data are obtained using a Schleuniger AT4.

Data set [3] can be described thus: Crushing strength versus tablet compression force, calcium carbonate/sugar alcohol tablets (Example 11). The note with it: for tendency of capping: observed during the experiment.
Text: In all the below described experiments 1-24 the amount of calcium salt is 76.22% w/w of the final tablet mass, the amount of sugar alcohol is 23.78% w/w, with the exception of experiments 4 and 20 at which the 23.78% w/w of sugar alcohol is replaced with 14.63% w/w of sugar alcohol and 9.15% w/w of Precirol.
The calcium salt and the sugar alcohol are mixed in a total amount of 6 kg in a Fielder high shear mixer. The sugar alcohol is sieved through sieve size 300 μm prior to mixing. The mixing of 6 kg is done twice and the total yield of 12 kg is mixed in a planetary mixer. Thereafter, the mixtures are roller compacted (intra granular sugar alcohol) using the following values for GW, F, RS and screen size. (For the experiments 25-26 the sugar alcohol is admixed by hand after roller compaction has been carried out (extra granular sugar alcohol)).
The compactate is admixed with 0.34% w/w of magnesium stearate.
Compression is carried out on a Fette 1090 using a 18.9 mm×9.4 mm capsule shaped punch design and a theoretical tablet mass of 1683 mg. […] The crushing strength has been measured by use of a Schleuniger Autotest 4 and n=20.
The subject of the next data set is treated patients. The note with it: annual injections of 150.000-300.000 IU; cited from earlier work.

Data on 8 compounds can be found in patent publication US10357460B2, “Particulate comprising a calcium-containing compound and a sugar alcohol” (Takeda Nycomed AS, priority 2004, dated 2019).

As to `[Ca]` [calcium], the “women with PMS related symptoms” value in the data set on pre-menopausal women is 30%.
Regarding `OC[C@@H](O)[C@@H](O[C@H]1O[C@H](CO)[C@@H](O)[C@H](O)[C@H]1O)[C@H](O)[C@@H](O)CO` [maltitol, Maltitol], the “compactability (slope of compression force versus crushing strength)” value in data set [1] is recorded as “very poor compactability”. For the same compound, the “binding properties (tablet hardness)” value in data set [2] (maltitol versus sorbitol 38 μm as binder, capsule shaped 9.4 mm*18.9 mm, FIG. 7) was “does not impart as good binding properties”. Besides, in data set [3], the tendency of capping entry was “tendency of capping”.
For `OC[C@@H](O)[C@@H](O)[C@H](O)[C@H](O)CO` [mannitol, Mannitol], in data set [1], the “compactability (slope of compression force versus crushing strength)” value is “very poor compactability”. For the same compound, the tendency of capping result in data set [3] is “tendency of capping”.
`OC[C@@H](O)[C@@H](O)[C@H](O)[C@@H](O)CO` [sorbitol, Sorbitol]: the “compactability (slope of compression force versus crushing strength)” value in data set [1] is on record as “best compactability”. Further, the tablet hardness result is “markedly increased tablet hardness” in data set [2] (decreasing size of sorbitol (110, 38, 11 μm), fixed compression force, 14 mm round tablets, FIG. 4) and “increased tablet hardness values” in data set [2] (presence of sorbitol compared to tablets consisting solely of calcium carbonate, FIG. 1).
For `OC[C@@H](O)[C@H](O)[C@@H](O)CO` [xylitol, Xylitol], in data set [1], the “compactability (slope of compression force versus crushing strength)” value is given as “very poor compactability”. Further, the tendency of capping result in data set [3] is on record as “tendency of capping”.
As to Glycerol distearat Type I EP [Precirol], the crushing strength result in data set [3] (addition of Precirol to xylitol 34 μm, FIG. 11) is given as “increases the crushing strength”.
As to Isomalt, the “compactability (slope of compression force versus crushing strength)” value in data set [1] is listed as “Sorbitol is followed by isomalt”.
Take vitamin D: in the data set with treated patients, the overall fracture rate entry was “significant reduction” and the “rate of hip fracture” value is recorded as “not in the rate of hip fracture”.
